Measurements taken from US8741641B2, “Methods for evaluating the stage of ovarian cancer or the survival rate of an ovarian cancer patient” (Fujifilm Corporation, priority 2007, dated 2014).

Legend:
[1] = system: CTGF gene; test: RT-PCR analysis of CTGF gene expression in ovarian cancer cell lines after treatment with demethylating reagent or deacetylation inhibitory agent; format: cell-based; conditions: ovarian cancer cell lines HNOA and RMG-II not expressing the CTGF gene
Protocol: D: Ovarian cancer cell lines (HNOA and […]) were treated (+) or not treated (−) with 5-aza-dCyd (5 μM) for 5 days or TSA (100 ng/ml) for 12 hours. The results of RT-PCR analysis on the CTGF gene in the ovarian cancer cell lines.
To examine the expression levels of the 7 above genes (the CTGF gene, the ENPP1 gene, the ENPP3 gene, the CRSP3 gene, the AKAP7 gene, the EPB41L2 gene, and the KIAA1913 gene), 24 types of ovarian cancer cell line, normal ovary, and a normal ovarian epithelial cell-derived immortalized cell line (OSE-2a) were subjected to reverse transcriptase (RT)-PCR. Specifically, a single-chain cDNA was synthesized from the RNA extracted from each cultured cell line using the SuperScript First-Strand Synthesis System (Invitrogen). Moreover, a glyceraldehyde-3-phosphate dehydrogenase (GAPDH) gene was used as a control. As a result, decreased expression levels of the CTGF gene, the ENPP1 gene, and the KIAA1913 gene were shown, compared with the case of normal ovary or OSE-2a cells (FIG. 1D), although chromosomal region 6q23.1-23.2 had not undergone homozygous deletion. This may be due to a mechanism other than genomic deletion, such as an epigenetic phenomenon in ovarian cancer cell lines. Moreover, in the above experiment, the ARG1 gene was not subjected to examination, since the gene is not expressed in the ovary according to the results of analyzing the gene expression database (ncbi.Nlm.nih.gov and http://www.lsbm.org/database/index.html).
To examine if suppressed CTGF gene expression is due to DNA methylation, ovarian cancer cell lines (HNOA and RMG-II) not expressing the CTGF gene were treated using 5 μM demethylating reagent 5-aza-dCyd for 5 days or using deacetylation inhibitory agent TSA (100 ng/ml) for 12 hours. RNAs were extracted from these cells and then CTGF gene expression was examined by RT-PCR (FIG. 1D).

[2] = system: CpG islands of the CTGF gene; test: Demethylation of CpG islands of the CTGF gene in ovarian cancer cells cultured with demethylating reagent; format: cell-based; conditions: ovarian cancer cells cultured in the presence of the reagent

SMILES | CTGF gene expression (RT-PCR) ([1]; 5 μM for 5 days) | CTGF gene expression (RT-PCR) ([1]; 5 μM for 5 days, listed as 5-azadeoxycytidine) | demethylation of CpG islands [2] | CTGF gene expression (RT-PCR) ([1]; 100 ng/ml for 12 hours)
Nc1ncn([C@H]2C[C@H](O)[C@@H](CO)O2)c(=O)n1 [5-aza-dCyd, 5-azadeoxycytidine] | recovers its gene expression | recover the expression level of the CTGF gene | possible to demethylate such CpG islands | 
CC(/C=C/C(=O)NO)=C\[C@@H](C)C(=O)c1ccc(N(C)C)cc1 [TSA] |  |  |  | no differences
